Measured values: patent publication US11524966B1 (Valo Early Discovery, Inc., priority 2017, dated 2022)

Each compound was assayed against T1, USP28 (USP28-5(1-1077)-TEV-6*His; LifeSensors) (Homo sapiens, UniProt Q96RU2) (assay: Ubiquitin-Rhodamine 110 Assay for USP28 Activity, Example A-1(b)). Conditions: Ubiquitin-Rhodamine 110 assay, Example A-1(b).
T1 construct: construct USP28 (USP28-5(1-1077)-TEV-6*His; LifeSensors); TEV cleavage site (C); 6xHis (C); purchased LifeSensors
T1 sequence (Q96RU2 1-1077): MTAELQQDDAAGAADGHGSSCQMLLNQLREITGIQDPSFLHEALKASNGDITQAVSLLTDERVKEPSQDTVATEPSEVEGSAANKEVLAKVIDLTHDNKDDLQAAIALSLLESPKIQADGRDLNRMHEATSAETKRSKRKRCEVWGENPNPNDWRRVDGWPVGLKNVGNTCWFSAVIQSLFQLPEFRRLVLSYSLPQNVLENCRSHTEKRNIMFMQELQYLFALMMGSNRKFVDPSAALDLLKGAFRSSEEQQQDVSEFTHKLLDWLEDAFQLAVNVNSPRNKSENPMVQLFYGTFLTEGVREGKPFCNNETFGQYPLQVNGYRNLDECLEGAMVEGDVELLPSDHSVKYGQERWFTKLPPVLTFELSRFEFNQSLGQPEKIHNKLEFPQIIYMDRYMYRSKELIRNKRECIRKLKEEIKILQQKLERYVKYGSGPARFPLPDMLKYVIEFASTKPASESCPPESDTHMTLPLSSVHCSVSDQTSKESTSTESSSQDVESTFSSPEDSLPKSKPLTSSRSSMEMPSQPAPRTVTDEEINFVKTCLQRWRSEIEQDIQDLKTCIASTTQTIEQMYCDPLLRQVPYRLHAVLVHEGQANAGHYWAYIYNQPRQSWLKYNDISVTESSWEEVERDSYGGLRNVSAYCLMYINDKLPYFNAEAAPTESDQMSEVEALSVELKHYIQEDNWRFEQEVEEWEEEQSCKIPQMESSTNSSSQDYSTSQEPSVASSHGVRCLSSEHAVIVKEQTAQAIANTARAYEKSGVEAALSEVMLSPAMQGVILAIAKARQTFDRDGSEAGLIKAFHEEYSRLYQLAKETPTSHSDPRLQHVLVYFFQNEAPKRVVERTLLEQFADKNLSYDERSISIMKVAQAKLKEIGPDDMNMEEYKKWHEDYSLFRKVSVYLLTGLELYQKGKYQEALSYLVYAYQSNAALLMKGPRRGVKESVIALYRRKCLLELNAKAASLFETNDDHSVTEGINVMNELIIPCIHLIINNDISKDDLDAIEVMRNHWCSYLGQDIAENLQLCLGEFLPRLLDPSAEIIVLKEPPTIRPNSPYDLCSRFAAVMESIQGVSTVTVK
Format: biochemical
How it was run: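 Single-point screening used 10 μM compound with 90 min room-temperature incubation; follow-up dose-responses (25 μM top, 3-fold) used 75 pM USP28 1-1077 construct, 30 min compound preincubation, 25 nM Ub-Rh110, 20 min reaction, citric acid quench. Rh110 fluorescence normalised to no-enzyme and DMSO controls; IC50 from 4-parameter logistic fit.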

SMILES	USP28 A-1(b) IC50 range
Cc1ccc2c(N)c(C(=O)N[C@H]3COc4cc(N5CCC(F)(F)CC5)ccc4C3)sc2n1 [Example 5-1, (R)-3-amino-N-(7-(4,4-difluoropiperidin-1-yl)chroman-3-yl)-6-methylthieno[2,3-b]pyridine-2-carboxamide]	++++ (0.001-0.05 μM)
O=C(N[C@H]1COc2cc(N3CCNCC3)ccc2C1)c1ccc(NCc2cccc(C(F)(F)F)c2)nc1 [Example 469, (R)-N-(7-(piperazin-1-yl)chroman-3-yl)-6-((3-(trifluoromethyl)benzyl)amino)nicotinamide]	++ (0.2-2 μM)
Cc1cnc2c(N)c(C(=O)N[C@@H]3CCc4cc(N5CC6CNCC(C5)O6)ccc4C3)sc2n1 [Example 450, N-((2R)-6-(9-oxa-3,7-diazabicyclo[3.3.1]nonan-3-yl)-1,2,3,4-tetrahydronaphthalen-2-yl)-7-amino-3-methylthieno[2,3-b]pyrazine-6-carboxamide]	+ (>2 μM)
COC[C@@H]1CN(c2ccc3c(n2)OC[C@H](NC(=O)c2sc4nc(C)cc(C)c4c2N)C3)C[C@@H]1N [Example 348, 3-amino-N-[(3R)-7-[(3R,4R)-3-amino-4-(methoxymethyl)pyrrolidin-1-yl]-2H,3H,4H-pyrano[2,3-b]pyridin-3-yl]-4,6-dimethylthieno[2,3-b]pyridine-2-carboxamide]	+ (>2 μM)
O=C(N[C@H]1COc2cc(N3CCNCC3)ccc2C1)c1cnn2ccccc12 [Example 460, (R)-N-(7-(piperazin-1-yl)chroman-3-yl)pyrazolo[1,5-a]pyridine-3-carboxamide]	+ (>2 μM)
Cc1cnc2c(N)c(C(=O)N[C@H]3CCc4cc(N5CC6COCC(C5)N6)ccc4C3)sc2n1 [Example 456, N-((2S)-6-(3-oxa-7,9-diazabicyclo[3.3.1]nonan-7-yl)-1,2,3,4-tetrahydronaphthalen-2-yl)-7-amino-3-methylthieno[2,3-b]pyrazine-6-carboxamide]	++ (0.2-2 μM)
Cc1cc(C)n2ncc(C(=O)N[C@H]3COc4cc(N5CCNCC5)ccc4C3)c2n1 [Example 463, (R)-5,7-dimethyl-N-(7-(piperazin-1-yl)chroman-3-yl)pyrazolo[1,5-a]pyrimidine-3-carboxamide]	+ (>2 μM)
Cc1ccc2c(N)c(C(=O)N[C@H]3COc4cc(N5CCC(C(=O)O)CC5)ccc4C3)sc2n1 [Example 6-1, (R)-1-(3-(3-Amino-6-methylthieno[2,3-b]pyridine-2-carboxamido)chroman-7-yl)piperidine-4-carboxylic Acid]	++ (0.2-2 μM)
O=C(N[C@H]1COc2cc(N3CCNCC3)ccc2C1)c1ccc(NCc2ccc3c(c2)OCCO3)nc1 [Example 471, (R)-6-(((2,3-dihydrobenzo[b][1,4]dioxin-6-yl)methyl)amino)-N-(7-(piperazin-1-yl)chroman-3-yl)nicotinamide]	+ (>2 μM)
Cc1cnc2c(N)c(C(=O)N[C@@H]3CCc4cc(N5CCCNCC5)ccc4C3)sc2n1 [Example 452, (R)-N-(6-(1,4-diazepan-1-yl)-1,2,3,4-tetrahydronaphthalen-2-yl)-7-amino-3-methylthieno[2,3-b]pyrazine-6-carboxamide]	+ (>2 μM)
Cc1cnc2c(N)c(C(=O)N[C@H]3CCc4cc(N5CC6CNCC(C5)O6)ccc4C3)sc2n1 [Example 448, N-((2S)-6-(9-oxa-3,7-diazabicyclo[3.3.1]nonan-3-yl)-1,2,3,4-tetrahydronaphthalen-2-yl)-7-amino-3-methylthieno[2,3-b]pyrazine-6-carboxamide]	++ (0.2-2 μM)
Cc1ccc2c(N)c(C(=O)N[C@H]3COc4cc(N5CC6COCC(C5)C6(F)F)ccc4C3)sc2n1 [Example 5-4, 3-amino-N-((3R)-7-(9,9-difluoro-3-oxa-7-azabicyclo[3.3.1]nonan-7-yl)chroman-3-yl)-6-methylthieno[2,3-b]pyridine-2-carboxamide]	+++ (0.05-0.2 μM)
Cc1ccc2c(N)c(C(=O)N[C@H]3COc4cc(N5CCS(=O)(=O)CC5)ccc4C3)sc2n1 [Example 5-2, (R)-3-amino-N-(7-(1,1-dioxidothiomorpholino)chroman-3-yl)-6-methylthieno[2,3-b]pyridine-2-carboxamide]	+++ (0.05-0.2 μM)
Cc1ccc2c(N)c(C(=O)N[C@H]3COc4cc(N5CCN[C@H](C(F)(F)F)C5)ccc4C3)sc2n1 [Example 3-12, 3-amino-6-methyl-N-((R)-7-((S)-3-(trifluoromethyl)piperazin-1-yl)chroman-3-yl)thieno[2,3-b]pyridine-2-carboxamide]	++ (0.2-2 μM)
O=C(N[C@H]1COc2cc(N3CCNCC3)ccc2C1)c1ccc(NCc2ccccn2)nc1 [Example 470, (R)-N-(7-(piperazin-1-yl)chroman-3-yl)-6-((pyridin-2-ylmethyl)amino)nicotinamide]	+ (>2 μM)
Cc1cnc2c(N)c(C(=O)N[C@H]3CCc4cc(N5CC(C(=O)O)C5)ccc4C3)sc2n1 [Example 6-4, (S)-1-(6-(7-amino-3-methylthieno[2,3-b]pyrazine-6-carboxamido)-5,6,7,8-tetrahydronaphthalen-2-yl)azetidine-3-carboxylic acid]	+ (>2 μM)
CC(=O)N1CCCc2cc(C(=O)N[C@H]3COc4cc(N5CCNCC5)ccc4C3)ccc21 [Example 459, (R)-1-acetyl-N-(7-(piperazin-1-yl)chroman-3-yl)-1,2,3,4-tetrahydroquinoline-6-carboxamide]	+ (>2 μM)
Cc1ccc2c(N)c(C(=O)N[C@H]3COc4cc(N5CC[C@@H](C(=O)O)C5)ccc4C3)sc2n1 [Example 6-2, (R)-1-((R)-3-(3-amino-6-methylthieno[2,3-b]pyridine-2-carboxamido)chroman-7-yl)pyrrolidine-3-carboxylic acid]	++ (0.2-2 μM)
CC(=O)Nc1cccc(CNc2ccc(C(=O)N[C@H]3COc4cc(N5CCNCC5)ccc4C3)cn2)c1 [Example 473, (R)-6-((3-acetamidobenzyl)amino)-N-(7-(piperazin-1-yl)chroman-3-yl)nicotinamide]	+ (>2 μM)
Cc1ccc2c(N)c(C(=O)N[C@H]3COc4cc(N5C[C@H](N)[C@@H](F)C5)ccc4C3)sc2n1 [Example 3-7, 3-amino-N-((R)-7-((3S,4S)-3-amino-4-fluoropyrrolidin-1-yl)chroman-3-yl)-6-methylthieno[2,3-b]pyridine-2-carboxamide]	++ (0.2-2 μM)
O=C(N[C@H]1COc2cc(N3CCNCC3)ccc2C1)c1ccc(NCc2cccnc2)nc1 [Example 468, (R)-N-(7-(piperazin-1-yl)chroman-3-yl)-6-((pyridin-3-ylmethyl)amino)nicotinamide]	+ (>2 μM)
Cc1ccc2c(N)c(C(=O)N[C@H]3CCc4nc(N5C[C@@H](N)[C@H](C(F)(F)F)C5)ccc4C3)sc2n1 [Example 364, 3-amino-N-[(6S)-2-[(3S,4R)-3-amino-4-(trifluoromethyl)pyrrolidin-1-yl]-5,6,7,8-tetrahydroquinolin-6-yl]-6-methylthieno[2,3-b]pyridine-2-carboxamide]	+ (>2 μM)
Cc1ccc2c(N)c(C(=O)N[C@H]3COc4cc(N5CC(O)(C(F)(F)F)C5)ccc4C3)sc2n1 [Example 5-3, (R)-3-amino-N-(7-(3-hydroxy-3-(trifluoromethyl)azetidin-1-yl)chroman-3-yl)-6-methylthieno[2,3-b]pyridine-2-carboxamide]	+++ (0.05-0.2 μM)
